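Following 48 hours of exposure in 96-well plates, responses at five concentrations were used to interpolate endpoints linearly. At the TGI there is no net growth.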 A value given as a limit tells only on which side of the number the result lay.

Some test systems named below: 786-0 renal; A498 renal; A549 NSCLC; BT-549 breast; EKVX NSCLC; HOP-62 NSCLC; K-562 leukemia; M14 melanoma; OVCAR-4 ovarian; OVCAR-5 ovarian; RXF 393 renal; SF-295 CNS; SK-MEL-2 melanoma; SR leukemia; UACC-257 melanoma; UO-31 renal; KM12 colon; NCI-H460 lung; SK-MEL-28 melanoma; SW-620 colon.
Holding throughout (assay): growth of human tumour cells (NCI), 48 h

Regarding `Cc1cc(NS(=O)(=O)c2ccc(N=[N+]([O-])c3ccc(S(=O)(=O)Nc4cc(C)on4)cc3)cc2)no1`, the TGI in the assay with 786-0 renal, with A498 renal, in the assay on A549 NSCLC, in the assay with BT-549 breast, with EKVX NSCLC and with HOP-62 NSCLC was over 100 µM in each case. For the same compound, the TGI in the assay on K-562 leukemia, in the assay on M14 melanoma, in the assay with OVCAR-4 ovarian, in the assay with OVCAR-5 ovarian, in the assay on RXF 393 renal and with SF-295 CNS was over 100 µM throughout. The TGI in the assay on SK-MEL-2 melanoma, in the assay with SR leukemia, in the assay on UACC-257 melanoma and in the assay on UO-31 renal was over 100 µM in each case.

`O=C(NCCN1CCCCC1)c1cccc(I)c1`: the TGI in the assay with 786-0 renal, in the assay with A498 renal, with A549 NSCLC, in the assay on BT-549 breast, in the assay on EKVX NSCLC and in the assay on K-562 leukemia was over 100 µM each time. For the same compound, the TGI in the assay with KM12 colon, with M14 melanoma, with NCI-H460 lung, in the assay on OVCAR-4 ovarian, with OVCAR-5 ovarian and in the assay with RXF 393 renal was over 100 µM each time. Moreover, the TGI with SK-MEL-28 melanoma, in the assay with SR leukemia, with SW-620 colon and with UO-31 renal was over 100 µM throughout.

`CCOC(=O)c1c[nH]c(C(=O)C=[N+]=[N-])c1C1CCN(CC)C1=S` (stereo not given): the TGI in the assay with 786-0 renal, in the assay with A498 renal, with A549 NSCLC, in the assay with BT-549 breast, with EKVX NSCLC and in the assay on HOP-62 NSCLC was over 100 µM throughout. Moreover, the TGI in the assay with K-562 leukemia, in the assay on KM12 colon, in the assay on M14 melanoma, in the assay on NCI-H460 lung, in the assay with OVCAR-4 ovarian and in the assay with OVCAR-5 ovarian was over 100 µM each time. For the same compound, the TGI in the assay with RXF 393 renal, in the assay on SF-295 CNS, in the assay on SK-MEL-2 melanoma, with SK-MEL-28 melanoma, in the assay with SW-620 colon and with UACC-257 melanoma was over 100 µM in each case. Also, the TGI in the assay on UO-31 renal is over 100 µM.

Take `O=C1CSC(c2ccccc2O)N1c1ccc(-n2c(-c3ccccc3)nc3ccccc3c2=O)cc1` (stereo not given): the TGI in the assay on 786-0 renal is over 100 µM; in the assay with A498 renal it was over 100 µM; in the assay with A549 NSCLC, over 100 µM; in the assay on BT-549 breast it was 61.5 µM; with HOP-62 NSCLC it was 77.5 µM; in the assay with K-562 leukemia, over 100 µM. The TGI with KM12 colon is 97.7 µM; in the assay on M14 melanoma, over 100 µM; in the assay on NCI-H460 lung, 50.8 µM; in the assay on OVCAR-4 ovarian, over 100 µM; in the assay with OVCAR-5 ovarian, over 100 µM; in the assay with RXF 393 renal, over 100 µM. For the same compound, the TGI in the assay on SF-295 CNS was 50.5 µM; with SK-MEL-2 melanoma, 59.1 µM; in the assay on SK-MEL-28 melanoma it was over 100 µM; in the assay with SR leukemia it was over 100 µM; in the assay with SW-620 colon it was over 100 µM; with UACC-257 melanoma, 82.2 µM. The compound further returned a TGI with UO-31 renal of 77.2 µM.

In the case of `CC(C)[C@H]1NC(=O)[C@H]2N=C(S[C@H]2C)[C@@H]2CCCN2C(=O)[C@H](Cc2ccccc2)NC(=O)[C@@H]2CSC(=N2)[C@@H](Cc2ccccc2)NC(=O)[C@@H]2CSC1=N2`, the TGI was over 50 µM with 786-0 renal; 41.7 µM with A498 renal; over 50 µM in the assay on A549 NSCLC; over 50 µM in the assay on BT-549 breast; over 50 µM in the assay with EKVX NSCLC; over 50 µM in the assay with HOP-62 NSCLC. For the same compound, the TGI in the assay on K-562 leukemia is 23.9 µM; in the assay on KM12 colon, over 50 µM; in the assay with M14 melanoma, over 50 µM; in the assay on OVCAR-4 ovarian, over 50 µM; with OVCAR-5 ovarian, over 50 µM; in the assay on RXF 393 renal, over 50 µM. Further, the TGI in the assay with SF-295 CNS was over 50 µM; with SK-MEL-2 melanoma it was over 50 µM; in the assay on SK-MEL-28 melanoma it was over 50 µM; in the assay on SR leukemia, 19.7 µM; in the assay on SW-620 colon, over 50 µM; in the assay on UACC-257 melanoma it was over 50 µM. This compound also came in with a TGI in the assay on UO-31 renal of over 50 µM.

In the case of `COC(=O)/C=C/[C@@H]1[C@H](C)N1S(=O)(=O)c1ccc(C)cc1` (stereo not given in full), the TGI in the assay with 786-0 renal, in the assay on A498 renal, in the assay with A549 NSCLC, in the assay with BT-549 breast, in the assay with EKVX NSCLC and in the assay on HOP-62 NSCLC was over 100 µM throughout. The TGI in the assay with K-562 leukemia, in the assay on M14 melanoma, in the assay with NCI-H460 lung, with OVCAR-4 ovarian, with OVCAR-5 ovarian and with RXF 393 renal was over 100 µM throughout. For the same compound, the TGI in the assay with SF-295 CNS, in the assay on SK-MEL-2 melanoma, in the assay with SK-MEL-28 melanoma, in the assay with SR leukemia, in the assay on SW-620 colon and with UACC-257 melanoma was over 100 µM in each case.

Consider `CC(C)(O)c1cc2c(cc1C(C)(C)O)-c1ccccc1-2`, for which the TGI in the assay on 786-0 renal, with A498 renal, with A549 NSCLC, in the assay with BT-549 breast, with EKVX NSCLC and in the assay with K-562 leukemia was over 100 µM each time. For the same compound, the TGI with KM12 colon, in the assay with M14 melanoma, in the assay on NCI-H460 lung, in the assay with OVCAR-4 ovarian, with OVCAR-5 ovarian and in the assay with RXF 393 renal was over 100 µM throughout. Also, the TGI in the assay with SF-295 CNS, with SK-MEL-2 melanoma, in the assay on SK-MEL-28 melanoma, in the assay with SR leukemia, with SW-620 colon and in the assay on UACC-257 melanoma was over 100 µM each time.

(Values after PubChem BioAssay (NCI).)
